Tests used:
melanoma patients = test: Survival of melanoma patients on anti-PD1 therapy by sCD28 level before therapy; type: in vivo, human
Protocol: To further understand the impact of sCD28 levels on cancer progression during immunotherapy, more than 100 serum samples from melanoma patients prior to initiation of anti-PD1 therapy (Nivolumab, NCT01176461) were tested for sCD28 levels by ELISA. Survival was monitored throughout therapy and a survival function was plotted comparing subjects with high and low levels of sCD28 before therapy (FIG. 1).

[1] = system: SEB stimulated human PBMC; test: SEB activation of PBMCs for the generation of soluble CD28 (ELISA); type: cell-based
CMV-stimulated PBMC = test: CMV activation of PBMCs for the generation of soluble CD28 (ELISA); type: cell-based, human; conditions: 7 days CMV stimulation, with anti-PD-1 (Keytruda) 5 μg/mL, inhibitor 1 μM

## Nivolumab: anti-PD1 therapy (NCT01176461)
Melanoma patients; subjects with high levels of sCD28 before therapy
  median survival: 514 days
Melanoma patients; subjects with low levels of sCD28 (below 2 ng/mL) before therapy
  median survival: 659 days

## Keytruda: Anti-PD-1 (Keytruda, Merck)
[1]; PBMCs from two healthy donors, SEB for 8 days, anti-PD-1 5 μg/mL vs isotype control
  sCD28 in the media (increase induced by SEB): enhanced
[1]; days 6-8, vs isotype control
  sCD28 increase caused by the immunotherapy, significance: statistically significant

## CNC(=O)[C@@H](NC(=O)[C@H](CCCc1ccccc1)[C@H](C)N(O)C=O)C(C)(C)C [GI254023X]
CMV-stimulated PBMC
  sCD28 increase caused by anti-PD-1: abrogated the sCD28 increase caused by immunotherapy

— US20230221325A1, “SOLUBLE CD28 LEVELS AFTER IMMUNOTHERAPY” (BIOND BIOLOGICS LTD., priority 2019, published 2023)
